This is an account of results in patent US7622482B2, “Chemical compounds” (AstraZeneca, priority 2005, dated 2009).

As a reminder, the IC50 is the concentration that inhibits the measured activity by half.

The target in the assay is T1, human Trk A kinase (Homo sapiens, UniProt P04629).
T1 construct: His; made in house; host or cells: SF9 insect cells
Briefly: Trk A kinase assay (Alphascreen). The format is biochemical. To be noted: intracellular domain of HIS-tagged human Trk A, 70 μM ATP, 20 minutes, room temperature, read-out: Trk inhibitory activity IC50. The method, then: Trk A kinase activity was measured for its ability to phosphorylate synthetic tyrosine residues within a generic polypeptide substrate using an Amplified Luminescent Proximity Assay (Alphascreen) technology (PerkinElmer, 549 Albany Street, Boston, Mass.).
To measure Trk A kinase activity, the intracellular domain of a HIS-tagged human Trk A kinase (amino acids 442-796 of Trk A, Swiss-Prot Primary Accession Number P04629) was expressed in SF9 cells and purified using standard nickel column chromatography. After incubation of the kinase with a biotinylated substrate and adenosine triphosphate (ATP) for 20 minutes at room temperature, the kinase reaction was stopped by the addition of 30 mM ethylenediaminetetraacetic acid (EDTA). The reaction was performed in 384 well microtitre plates and the reaction products were detected with the addition of strepavidin coated Donor Beads and phosphotyrosine-specific antibodies coated Acceptor Beads using the EnVision Multilabel Plate Reader after an overnight incubation at room temperature.
In general terms: Alpha assays give light when donor and acceptor beads are brought close together.

T1 sequence (P04629 442-796): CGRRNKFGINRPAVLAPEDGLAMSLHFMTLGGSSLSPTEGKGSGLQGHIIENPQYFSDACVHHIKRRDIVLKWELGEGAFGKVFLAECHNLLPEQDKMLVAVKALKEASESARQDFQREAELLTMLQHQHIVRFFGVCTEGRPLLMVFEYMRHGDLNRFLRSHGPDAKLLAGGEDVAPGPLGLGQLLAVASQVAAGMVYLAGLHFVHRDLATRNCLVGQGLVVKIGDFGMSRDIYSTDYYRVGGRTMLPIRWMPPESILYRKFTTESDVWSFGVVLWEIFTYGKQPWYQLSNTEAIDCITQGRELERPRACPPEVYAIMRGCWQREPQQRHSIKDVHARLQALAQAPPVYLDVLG

Regarding `CC(C)Oc1cc(Nc2ncc3ncn([C@@H](C)c4ccc(F)cc4)c3n2)n[nH]1` [Example 5, 9-[(1S)-1-(4-Fluorophenyl)ethyl]-N-(5-isopropoxy-1H-pyrazol-3-yl)-9H-purin-2-amine], the IC50 was found to be 63 nM.

Regarding `C[C@@H](c1ccc(F)cc1)n1cnc2ccc(Nc3cc(C4CC4)[nH]n3)nc21` [Example 6, (S)—N-(5-Cyclopronyl-1H-pyrazol-3-yl)-3-(1-(4-fluorophenyl)ethyl)-3H-imidazo[4,5-b]pyridin-5-amine], the concentration for half-maximal inhibition (IC50) stood at 49 nM.

Consider `Fc1ccc(Cn2cnc3cc(Cl)c(Nc4cc(C5CC5)[nH]n4)nc32)cc1` [Example 18, 3-(4-Fluorobenzyl)-6-chloro-N-(5-cyclopropyl-1H-pyrazol-3-yl)-3H-imidazo[4,5-b]pyridin-5-amine], for which the IC50 was determined as 11 nM.
